Data published in article PMC3767324, “Synthesis, Characterization, and BSA Binding Studies of Some New Benzamides Related to Schiff Base” (ISRN Organic Chemistry, 2013).
≈ marks a conversion by molar mass, not a printed value. Like-named read-outs stand apart in the source and are kept apart here.

Legend:
A. niger [1] = experiment: agar disc diffusion, zone of inhibition; format: cell-based; settings: A. niger, discs 6 mm, test compounds 100 µg/mL in DMSO, standards 10 µg/disc, 28°C 48 h, average of three replicates; for zone of inhibition at 100 µg/mL: Aspergillus niger, read-out: zone of inhibition
Method: [The procedure below names another organism; the source lists this organism under the same test.] (§1) The in vitro antimicrobial screening effects of the compounds (3 and 5a–j) were individually tested against a panel of bacteria and fungi including Staphylococcus aureus (NCIM 5021), Bacillus subtilis (NCIM 2999), Pseudomonas aeruginosa (NCIM 5029), Escherichia coli (NCIM 2574), Candida. albicans (NCIM 3471), and Aspergillus flavus (NCIM 524). Microbial strains were cultured overnight at 37°C in nutrient and potato dextrose agar medium. All the pure microbial strains were obtained from National Chemical Laboratory (NCL), Pune, India.
(§2) The antibacterial activity of compounds was determined by agar disc diffusion method. Briefly, a suspension of tested bacterial strains was spread on the nutrient agar medium and potato dextrose agar for fungi. The discs (6 mm in diameter) impregnated with test chemicals each dissolved in concentration (100 μg/mL in DMSO) were placed on the inoculated agar and these plates were kept at 4°C for 2 h. The plate was incubated at 37°C for 24 h in case of bacteria and 48 h at 28°C in case of fungi. streptomycin (10 μg/disc) and fluconazole (10 μg/disc) were used as the standards for antibacterial and antifungal activity, respectively. All the samples were performed in triplicate and the zone of inhibition was measured in millimeters.

[2] = test system: Aspergillus flavus (NCIM 524); experiment: agar disc diffusion, zone of inhibition; format: cell-based; settings: A. flavus, discs 6 mm, test compounds 100 µg/mL in DMSO, standards 10 µg/disc, 28°C 48 h, average of three replicates; for zone of inhibition at 100 µg/mL: Aspergillus flavus, NCIM524, read-out: zone of inhibition
Method: as §1, §2

[3] = test system: Bacillus subtilis (NCIM 2999); experiment: agar disc diffusion, zone of inhibition; format: cell-based; settings: B. subtilis, discs 6 mm, test compounds 100 µg/mL in DMSO, standards 10 µg/disc, 37°C 24 h, average of three replicates; for zone of inhibition at 100 µg/mL: Bacillus subtilis, NCIM2999, read-out: zone of inhibition
Method: as §1, §2

[4] = test system: Escherichia coli (NCIM 2574); experiment: agar disc diffusion, zone of inhibition; format: cell-based; settings: E. coli, discs 6 mm, test compounds 100 µg/mL in DMSO, standards 10 µg/disc, 37°C 24 h, average of three replicates; for zone of inhibition at 100 µg/mL: Escherichia coli, NCIM2574, read-out: zone of inhibition
Method: as §1, §2

[5] = test system: Pseudomonas aeruginosa (NCIM 5029); experiment: agar disc diffusion, zone of inhibition; format: cell-based; settings: P. aeruginosa, discs 6 mm, test compounds 100 µg/mL in DMSO, standards 10 µg/disc, 37°C 24 h, average of three replicates; for zone of inhibition at 100 µg/mL: Pseudomonas aeruginosa, NCIM5029, read-out: zone of inhibition
Method: as §1, §2

[6] = test system: Staphylococcus aureus (NCIM 5021); experiment: agar disc diffusion, zone of inhibition; format: cell-based; settings: S. aureus, discs 6 mm, test compounds 100 µg/mL in DMSO, standards 10 µg/disc, 37°C 24 h, average of three replicates; for zone of inhibition at 100 µg/mL: Staphylococcus aureus, NCIM5021, read-out: zone of inhibition
Method: as §1, §2

A. niger [7] = experiment: minimum inhibitory concentration by dilution method; format: cell-based; settings: A. niger, dilution method, average of three replicates
Method: [The procedure below names another organism; the source lists this organism under the same test.] as §1
(§3) The minimum inhibitory concentration of the synthesized compounds was determined by dilution method. The compounds were dissolved and then diluted using DMSO; two-fold serial concentrations of the compounds were employed to determine the MIC. In this method, the test concentrations of chemically synthesized compounds were made from 5 to 125 μg/mL.

[8] = test system: Aspergillus flavus (NCIM 524); experiment: as above; format: cell-based; settings: A. flavus, dilution method, average of three replicates
Method: as §1, §3

[9] = test system: Bacillus subtilis (NCIM 2999); experiment: as above; format: cell-based; settings: B. subtilis, dilution method, average of three replicates
Method: as §1, §3

[10] = test system: Escherichia coli (NCIM 2574); experiment: as above; format: cell-based; settings: E. coli, dilution method, average of three replicates
Method: as §1, §3

[11] = test system: Pseudomonas aeruginosa (NCIM 5029); experiment: as above; format: cell-based; settings: P. aeruginosa, dilution method, average of three replicates
Method: as §1, §3

[12] = test system: Staphylococcus aureus (NCIM 5021); experiment: as above; format: cell-based; settings: S. aureus, dilution method, average of three replicates
Method: as §1, §3

[13] = DPPH free radical scavenging activity; settings: DPPH 0.1 mM, absorbance at 517 nm; triplicate, mean ± SD
Method: The capacity to scavenge the stable free radical 2,2-diphenyl-1-picrylhydrazyl (DPPH) was monitored according to the Blois method. The test samples (10–100 μL) were mixed with 1 mL of DPPH (0.1 mM) solution and filled up with methanol to a final volume of 4 mL. Absorbance of the resulting solution was measured at 517 nm in a visible spectrophotometer (Model 166, Systronics, India). The free radical scavenging rate of the reaction solution was calculated as a percentage (%) of DPPH decolouration using the equation (1) I(%)=(Ablank−Asample/Ablank)×100, where A blank is the absorbance of the control reaction mixture excluding the test compounds, and A sample is the absorbance of the test compounds. Radical scavenging potential was expressed as IC50 value, which represents the sample concentration at which 50% of the DPPH radicals were scavenged. Tests were carried out in triplicate and the results were expressed as mean values ± standard deviations.
DPPH radical scavenging activity evaluation is a standard assay in antioxidant activity studies and offers a rapid technique for screening the radical scavenging activity of specific compounds [24]. The free radical scavenging activity of newly synthesized compounds was tested by their ability to bleach the stable radical DPPH. The activity was monitored by following the absorption at 517 nm in a visible spectrophotometer. In the presence of any free radical scavenger, this odd electron pairs up and causes the diminishing of absorption band which is proportional to the number of electrons taken up. The activity was studied at different concentrations for each compound. […] Resulting from a color change from purple to yellow the absorbance decreased when the antioxidant molecule can quench DPPH free radical through donation of hydrogen atom or by electron donating to form a stable DPPH molecule.

[14] = superoxide radical scavenging assay (NBT, xanthine-xanthine oxidase system); format: biochemical; settings: NBT reduction, pH 7.8, 560 nm, three replicates
Method: Superoxide radical scavenging activity was measured as described by Kovala-Demertzi et al., (2004). The assay is based on the reduction of nitroblue tetrazolium (NBT) by superoxide ions generated by the xanthine-xanthine oxidase system (X–XO). The reaction system contained 0.2 mM xanthine and 0.6 mM NBT in 0.1 M phosphate buffer, pH 7.8. The tested compounds were dissolved in methanol. The reaction was started by addition of XO (0.07 U mL^−1), an activity which allowed to yield the absorbance change between 0.03 and 0.04 per minute, at 560 nm. The extent of NBT reduction was followed spectrophotometrically, by measuring the increase of the absorbance at 560 nm. All the experiments were replicated three times. The IC50 of each compound was defined as the concentration which inhibited 50% of the NBT reduction by O2 ^•− produced in the X–XO system.
Superoxide anion radical is normally initially formed, and its effects can be magnified because it produces other kinds of free radicals and oxidizing agents. The enzymatic superoxide anion radical was generated by the xanthine/xanthine oxidase reaction system. The production of superoxide was estimated by the nitroblue tetrazolium method. […] Differently, in the m-position, methoxy and hydroxyl groups act as an electron-withdrawing properties, ([…]), which are possible for providing a destabilizing effect.

[15] = Aspergillus niger, read-out: MIC
[16] = Aspergillus flavus, NCIM524, read-out: MIC
[17] = Bacillus subtilis, NCIM2999, read-out: MIC
[18] = Escherichia coli, NCIM2574, read-out: MIC
[19] = Pseudomonas aeruginosa, NCIM5029, read-out: MIC
[20] = Staphylococcus aureus, NCIM5021, read-out: MIC

SMILES	MIC (A. niger [7]; [15]) [µg/mL]	MIC [8, 16] [µg/mL]	MIC [9, 17] [µg/mL]	MIC [10, 18] [µg/mL]	MIC [11, 19] [µg/mL]	MIC [12, 20] [µg/mL]	IC50 DPPH [13] [µg/mL]	IC50 Superoxide [14] [µg/mL]	zone of inhibition at 100 µg/mL (A. niger [1]) [mm]	zone of inhibition at 100 µg/mL [2] [mm]	zone of inhibition at 100 µg/mL [3] [mm]	zone of inhibition at 100 µg/mL [4] [mm]	zone of inhibition at 100 µg/mL [5] [mm]	zone of inhibition at 100 µg/mL [6] [mm]	further results
CC(=O)Nc1ccc(N=Cc2cc3ccccc3o2)cc1 [Compound 3, N-(4-((benzofuran-2-ylmethylene)amino)phenyl)acetamide]	75 (≈ 269 µM)	75 (≈ 269 µM)	75 (≈ 269 µM)	> 100	> 100	75 (≈ 269 µM)	95.3 ± 0.76 (≈ 342 µM)	85.1 ± 0.33 (≈ 306 µM)	12.4	12.5	7	11	10	8	
OC(Cn1cncn1)(Cn1cncn1)c1ccc(F)cc1F [Fluconazole, fluconazole, reference compound]	5 (≈ 16.3 µM)	5 (≈ 16.3 µM)							16	19					
COc1ccc(O)c(C(C)(C)C)c1 [BHA, butylated hydroxyanisole, reference compound]								13.4 ± 0.29 (≈ 74.3 µM)							
O=C1O[C@H]([C@@H](O)CO)C(O)=C1O [AA, Ascorbic acid, reference compound]							12.6 ± 0.43 (≈ 71.5 µM)								
[H]/N=C(/N)N[C@H]1[C@H](O)[C@@H](O)[C@H](O[C@@H]2O[C@@H](C)[C@](O)(C=O)[C@H]2O[C@@H]2O[C@@H](CO)[C@H](O)[C@@H](O)[C@@H]2NC)[C@@H](N/C(N)=N\[H])[C@@H]1O [Streptomycin, streptomycin, reference compound]			5 (≈ 8.6 µM)	5 (≈ 8.6 µM)	5 (≈ 8.6 µM)	5 (≈ 8.6 µM)					13.4	16.5	14	14.1	

Further lines, with some results ahead:

MIC (A. niger [7]; [15]) [µg/mL]	MIC [8, 16] [µg/mL]	MIC [9, 17] [µg/mL]	MIC [10, 18] [µg/mL]	MIC [11, 19] [µg/mL]	MIC [12, 20] [µg/mL]	IC50 DPPH [13] [µg/mL]	IC50 Superoxide [14] [µg/mL]	SMILES	zone of inhibition at 100 µg/mL (A. niger [1]) [mm]	zone of inhibition at 100 µg/mL [2] [mm]	zone of inhibition at 100 µg/mL [3] [mm]	zone of inhibition at 100 µg/mL [4] [mm]	zone of inhibition at 100 µg/mL [5] [mm]	zone of inhibition at 100 µg/mL [6] [mm]	further results
100 (≈ 252 µM)	75 (≈ 189 µM)	50 (≈ 126 µM)	100 (≈ 252 µM)	100 (≈ 252 µM)	50 (≈ 126 µM)	53 ± 0.04 (≈ 134 µM)	49 ± 0.17 (≈ 124 µM)	CC(=O)N(C(=O)c1ccccc1C)c1ccc(N=Cc2cc3ccccc3o2)cc1 [Compound 5f, N-acetyl-N-(4-((benzofuran-2-ylmethylene)amino)phenyl)-2-methylbenzamide]	12	10.2	8	11	10	10	melting point: 187 °C
						48.9 ± 0.11 (≈ 109 µM)	55.3 ± 0.04 (≈ 124 µM)	CC(=O)N(C(=O)OCc1ccccc1Cl)c1ccc(N=Cc2cc3ccccc3o2)cc1 [Compound 5d, 2-chlorobenzylacetyl(4-((benzofuran-2-ylmethylene)amino)phenyl)carbamate]							zone of inhibition (A. niger [1]): 13.7 mm; zone of inhibition [2]: 11 mm; zone of inhibition [3]: 14 mm; zone of inhibition [4]: 10 mm; zone of inhibition [5]: 13 mm; zone of inhibition [6]: 12 mm; MIC (A. niger [7]): 25 µg/mL (≈ 55.9 µM); MIC [8]: 40 µg/mL (≈ 89.5 µM); MIC [9]: 50 µg/mL (≈ 112 µM); MIC [10]: 50 µg/mL (≈ 112 µM); MIC [11]: 50 µg/mL (≈ 112 µM); MIC [12]: 30 µg/mL (≈ 67.1 µM)
20 (≈ 46.8 µM)	20 (≈ 46.8 µM)	15 (≈ 35.1 µM)	25 (≈ 58.5 µM)	25 (≈ 58.5 µM)	15 (≈ 35.1 µM)	87.4 ± 0.31 (≈ 204 µM)	79.2 ± 0.24 (≈ 185 µM)	CC(=O)N(C(=O)c1ccc([N+](=O)[O-])cc1)c1ccc(N=Cc2cc3ccccc3o2)cc1 [Compound 5e, N-acetyl-N-(4-((benzofuran-2-ylmethylene)amino)phenyl)-4-nitrobenzamide]	14.1	13.6	11	9	11	14	melting point: 182 °C
